Where two headings read alike, the source gives them in different places.
Tests used:
[1] = Stability of 2.3 mM furimazine at 37° C. in the dark with or without 200 mM thionucleoside, luminescence with NANOLUC enzyme; assay type: physicochemical; settings: 50% propylene glycol:50% ethanol
Description: Specifically, a stock solution of furimazine in 50% propylene glycol:50% ethanol (v/v) was prepared, in which the final concentration of furimazine by absorbance was 4.6 mM. The furimazine stock solution was then diluted 1:1 in 50% propylene glycol:50% ethanol (v/v) to create a control solution without the additives ATT, TAK-0014 and TAK-0002 (i.e., “no additive furimazine” control) and containing 2.3 mM furimazine. 400 mM stock solutions of ATT, TAK-0014 and TAK-0002 were prepared in 50% propylene glycol:50% ethanol (v/v). Each of the ATT, TAK-0014 and TAK-0002 stock solutions was then diluted 1:1 in the 4.6 mM furimazine stock solution to yield solutions containing 200 mM ATT, TAK-0014 or TAK-0002, and 2.3 mM furimazine.
Each sample was separated into multiple amber tubes and incubated at 37° C. in a dark incubator (i.e., in the absence of light). Aliquots were taken from each sample at various time points and stored at −20° C. in the dark (i.e., in the absence of light) until all time points were collected.
To measure luminescence in the aliquots, each aliquot was diluted 1:50 in buffer (NANOGLO buffer, Promega Corporation) to yield 46 μM furimazine. These diluted aliquots were further diluted 1:10 in buffer (NANOGLO buffer, Promega Corporation) to yield 4.6 μM furimazine. 504 of each dilution (i.e., the twice diluted (0.1) aliquots) was mixed with 504, of CO2-independent media+10% fetal bovine serum (FBS) and 0.4 ng/mL luminogenic enzyme (NANOLUC enzyme, Promega Corporation). Luminescence was measured on a luminometer (GLOMAX Multi Plus luminometer, Promega Corporation). Relative light units (RLUs) were normalized for each time point by the RLU value at the 0 days time point. The percent activity from the 0 days time point (i.e., t=0) was plotted against time (days) for each sample as shown in FIG. 15A. In FIG. 15A, B-ATT denoted TAK-0002 and E-ATT denoted TAK-0014.
Error in Table 15 was the standard error from a regression calculation and Fz denoted furimazine, B-ATT denoted TAK-0002, and E-ATT denoted TAK-0014.

[2] = Stability of 1.25 mM coelenterazine in 50% ethanol and 50% propylene glycol with or without 225 mM ATT, HPLC and Arrhenius plots; assay type: physicochemical; settings: for half-life at 1.25 mM: solution of 50% ethanol and 50% propylene glycol
Description: The stability of coelenterazine in the presence and absence of ATT was measured over time at different temperatures. Specifically, 1.25 mM coelenterazine was present in a solution of 50% ethanol and 50% propylene glycol (i.e., the solution without ATT) or a solution of 50% ethanol and 50% propylene glycol with 225 mM ATT (i.e., the solution with ATT). These two solutions were incubated at −20° C., room temperature (RT), 40° C., or 60° C. and analyzed at 0 days, 1 day, 3 days, 7 days, 15 days, and 30 days.
Following incubation, high performance liquid chromatography (HPLC) was utilized to identify the components of the respective solutions at each time point. Specifically, an Agilent 1100 HPLC instrument was used and equipped with a quaternary pump, thermostatted autosampler and column compartment, and a G1311B diode-array detector. The column used was a Synergi-MAX-RP (Phenomenex, Torrance, Calif.) 100 AÅ 50×4.6 2.5 μm. The run on the HPLC was a gradient run with 0.1% TFA in water and acetonitrile. Absorbance was measured at 262 nanometers (nm). Standards of coelenterazine and its known degradants were run to confirm both the retention time and absorbance trace. 5 μl of each solution was injected and the retention time of coelenterazine was 3.9 minutes at room temperature.
The results of the HPLC analysis are shown below in Tables 1 and 2 and FIGS. 1A and 1B, in which the values are reported as relative peak area percentage at 262 nm (i.e., the lamba max of the substrate). […] In each of FIGS. 1A and 1B, diamond is 1.25 mM coelenterazine incubated over time with or without 225 mM ATT, respectively, at −20° C., triangle is 1.25 mM coelenterazine incubated over time with or without 225 mM ATT, respectively, at room temperature (RT), star is 1.25 mM coelenterazine incubated over time with or without 225 mM ATT, respectively, at 40° C., and cross is 1.25 mM coelenterazine incubated over time with or without 225 mM ATT, respectively, at 60° C.
From the HPLC analysis, the half-life of coelenterazine in the presence of ATT at 40° C. and 60° C. was calculated to be 23 days and 5 days, respectively, while the half-life of coelenterazine in the absence of ATT at 40° C. and 60° C. was calculated to be 9.5 days and 2 days, respectively (see Table 3 below).
Additionally, Arrhenius plots were generated for coelenterazine in the presence and absence of ATT to calculate the half-life of coelenterazine at various temperatures. The Arrhenius equation is as follows: […]
In FIG. 7, the slope was −8636.59, the intercept was 24.1199, and R^2 was 0.9983.
In FIG. 8, the slope was −7382.51, the intercept was 21.2598, and R^2 was 0.9570.

[3] = decomposition of coelenterazine

CCc1n[nH]c(=S)[nH]c1=O [TAK-0014]
stabilization of furimazine against decomposition in the absence of light [1]: stabilized furimazine against decomposition in the absence of light

O=c1c(Cc2ccc(O)cc2)nc2c(Cc3ccccc3)[nH]c(-c3ccc(O)cc3)cn1-2 [Coelenterazine (27-957-28), coelenterazine]
relative peak area percentage at 262 nm ([2]; 40° C., 0 days): 96.5% | relative peak area percentage at 262 nm ([2]; 40° C., 1 day): 92.2% | relative peak area percentage at 262 nm ([2]; 40° C., 3 days): 84.9% | relative peak area percentage at 262 nm ([2]; 40° C., 15 days): 12.6% | relative peak area percentage at 262 nm ([2]; 60° C., 0 days): 96.5% | relative peak area percentage at 262 nm ([2]; 60° C., 1 day): 79.6% | relative peak area percentage at 262 nm ([2]; 60° C., 3 days): 36.8% | relative peak area percentage at 262 nm ([2]; RT, 0 days): 96.5% | relative peak area percentage at 262 nm ([2]; RT, 1 day): 96.1% | relative peak area percentage at 262 nm ([2]; RT, 3 days): 94.0% | relative peak area percentage at 262 nm ([2]; RT, 7 days): 91.0% | relative peak area percentage at 262 nm ([2]; RT, 15 days): 87.4% | relative peak area percentage at 262 nm ([2]; RT, 30 days): 57.7% | Arrhenius plot intercept [2, 3]: 21.2598 | Arrhenius plot slope [2, 3]: −7382.51 | half-life at 1.25 mM ([2]; 20° C., read-out: T1/2 Calculated from Arrhenius (converted)): 852 h | half-life at 1.25 mM ([2]; 40° C., read-out: T1/2 Calculated from Arrhenius (converted)): 170 h | half-life at 1.25 mM ([2]; 40° C., read-out: T1/2 Estimated from graph (converted)): 228 h | half-life at 1.25 mM ([2]; 60° C., read-out: T1/2 Calculated from Arrhenius (converted)): 40.8 h | half-life at 1.25 mM ([2]; 60° C., read-out: T1/2 Estimated from graph (converted)): 48 h | half-life at 1.25 mM ([2]; −20° C., read-out: T1/2 Calculated from Arrhenius (converted)): 46500 h | relative peak area percentage at 262 nm ([2]; −20° C., 0 days): 96.5% | relative peak area percentage at 262 nm ([2]; −20° C., 1 day): 97.2% | relative peak area percentage at 262 nm ([2]; −20° C., 3 days): 96.4% | relative peak area percentage at 262 nm ([2]; −20° C., 7 days): 96.5% | relative peak area percentage at 262 nm ([2]; −20° C., 15 days): 96.5% | relative peak area percentage at 262 nm ([2]; −20° C., 30 days): 86.2%

O=c1[nH]c(=S)[nH]nc1Cc1ccccc1 [TAK-0002, 6-benzyl-3-sulfanyl-1,2,4-triazin-5-ol]
stabilization of furimazine against decomposition in the absence of light [1]: stabilized furimazine against decomposition in the absence of light

From patent US9676997B2, “Compositions and methods for stabilizing luminogenic substrates” (Promega Corporation, priority 2014, dated 2017)
